Test results from patent US9056836B2, “Benzomorphan analogs and the use thereof” (Purdue Pharma L.P., priority 2013, dated 2015).
Like-named read-outs stand apart in the source and are kept apart here.

Key:
κ opioid receptor [1] = target: T1, κ opioid receptor (Homo sapiens (Human), UniProt P41145); test: κ-opioid receptor radioligand dose-displacement binding assay ([3H]-U69,593)
Procedure: κ-opioid Receptor Binding Assay Procedures: Membranes from recombinant HEK-293 cells expressing the human κ opioid receptor (cloned in house) were prepared by lysing cells in ice cold hypotonic buffer (2.5 mM MgCl2, 50 mM HEPES, pH 7.4) (10 mL/10 cm dish) followed by homogenization with a tissue grinder/Teflon pestle. Membranes were collected by centrifugation at 30,000× g for 15 min at 4° C. and pellets were resuspended in hypotonic buffer to a final concentration of 1-3 mg/mL. Protein concentrations were determined using the BioRad protein assay reagent with bovine serum albumen as standard. Aliquots of κ receptor membranes were stored at −80° C.
Radioligand dose displacement assays used 0.4 nM [^3]-U69,593 (GE Healthcare, Piscataway, N.J.; 40 Ci/mmole) with 15 μg membrane protein (recombinant κ opioid receptor expressed in HEK 293 cells; in-house prep) in a final volume of 200 μl binding buffer (5% DMSO, 50 mM Trizma base, pH 7.4). Non-specific binding was determined in the presence of 10 μM unlabeled naloxone or U69,593. All reactions were performed in 96-well polypropylene plates for 1 hr at a temperature of about 25° C. Binding reactions were terminated by rapid filtration onto 96-well Unifilter GF/C filter plates (Perkin Elmer, Shelton, Conn.) presoaked in 0.5% polyethylenimine (Sigma). Harvesting was performed using a 96-well tissue harvester (Perkin Elmer, Shelton, Conn.) followed by five filtration washes with 200 μl ice-cold binding buffer. Filter plates were subsequently dried at 50° C. for 1-2 hours. Fifty μl/well scintillation cocktail (Perkin Elmer, Shelton, Conn.) was added and plates were counted in a Packard Top-Count for 1 min/well. Data were analyzed using the sigmoidal dose-response curve fitting functions in GraphPad PRISM™ v. 3.0, or an in-house function for non-linear, sigmoidal dose-response curve-fitting.
κ-opioid Receptor Binding Data: In certain embodiments, the Compounds of the Invention will have a Ki (nM) for κ receptors of about 10,000 or more (which, for purposes of this invention, is interpreted as having no binding to the κ receptors).

μ-opioid receptor [2] = target: T2, μ-opioid receptor (Homo sapiens (Human), UniProt P35372); test: μ-opioid receptor radioligand dose-displacement binding assay ([3H]-diprenorphine); details: binding affinity, μ-opioid receptor membranes
Procedure: μ-opioid Receptor Binding Assay Procedures: Radioligand dose-displacement binding assays for μ-opioid receptors used 0.3 nM [^3H]-diprenorphine (Perkin Elmer, Shelton, Conn.), with […] membrane protein/well in a final volume of 500 μl binding buffer (10 mM MgCl2, 1 mM EDTA, 5% DMSO, 50 mM HEPES, pH 7.4). Reactions were carried out in the absence or presence of increasing concentrations of unlabeled naloxone. All reactions were conducted in 96-deep well polypropylene plates for 2 hr at room temperature. Binding reactions were terminated by rapid filtration onto 96-well Unifilter GF/C filter plates (Perkin Elmer, Shelton, Conn.), presoaked in 0.5% polyethylenimine using a 96-well tissue harvester (Perkin Elmer, Shelton, Conn.) followed by performing three filtration washes with 500 μl of ice-cold binding buffer. Filter plates were subsequently dried at 50° C. for 2-3 hours. BetaScint scintillation cocktail (Perkin Elmer, Shelton, Conn.) was added (50 μl/well), and plates were counted using a Packard Top-Count for 1 min/well. The data were analyzed using the one-site competition curve fitting functions in GraphPad PRISM™ v. 3.0 or higher (San Diego. Calif.), or an in-house function for one-site competition curve-fitting.

κ opioid receptor [3] = target: T1, κ opioid receptor; test: κ-opioid receptor [35S]GTPγS functional assay; assay type: biochemical; details: for Emax: maximal effect relative to U69,593
Procedure: κ-Opioid Receptor Functional Assay Procedures: Functional [^35S]GTPγS binding assays were conducted as follows, k opioid receptor membrane solution was prepared by sequentially adding final concentrations of 0.026 μg/μl κ membrane protein (in-house), 10 μg/mL saponin, 3 μM GDP and 0.20 [^35S]GTPγS to binding buffer (100 mM NaCl, 10 mM MgCl2, 20 mM HEPES, pH 7.4) on ice. The prepared membrane solution (190 μl/well) was transferred to 96-shallow well polypropylene plates containing 10 μl of 20× concentrated stock solutions of agonist prepared in DMSO. Plates were incubated for 30 min at a temperature of about 25° C. with shaking. Reactions were terminated by rapid filtration onto 96-well Unifilter GF/B filter plates (Perkin Elmer, Shelton, Conn.) using a 96-well tissue harvester (Packard) and followed by three filtration washes with 200 μl ice-cold binding buffer (10 mM NaH2PO4, 10 mM Na2HPO4, pH 7.4). Filter plates were subsequently dried at 50° C. for 2-3 hours. Fifty μl/well scintillation cocktail (Perkin Elmer, Shelton, Conn.) was added and plates were counted in a Packard Top-Count for 1 min/well. Data were analyzed using the sigmoidal dose-response curve fitting functions in GraphPad PRISM™ v. 3.0, or an in-house function for non-linear, sigmoidal dose-response curve-fitting.
κ-Opioid Receptor Functional Data: κ GTP EC50 is the concentration of a compound providing 50% of the maximal response for the compound at a κ receptor.
κ GTP Emax (%) is the maximal effect elicited by a compound relative to the effect elicited by U69,593.

μ-opioid receptor [4] = target: T2, μ-opioid receptor; test: μ-opioid receptor [35S]GTPγS functional assay; assay type: biochemical; details: for Emax: maximal effect relative to DAMGO
Procedure: μ-Opioid Receptor Functional Assay Procedures: [^35S]GTPγS functional assays were conducted using freshly thawed μ-receptor membranes (Perkin Elmer, Shelton, Conn.). Assay reactions were prepared by sequentially adding the following reagents to binding buffer (100 mM NaCl, 10 mM MgCl2, 20 mM HEPES, pH 7.4) on ice (final concentrations indicated): membrane protein (0.026 mg/mL), saponin ([…]), GDP ([…]) and [^35S]GTPγS (0.20 nM; Perkin Elmer, Shelton, Conn.). The prepared membrane solution (190 μl/well) was transferred to 96-shallow well polypropylene plates containing 10 μl of 20× concentrated stock solutions of the agonist [D-Ala^2, N-methyl-Phe^4 Gly-ol^5]-enkephalin (DAMGO) prepared in dimethyl sulfoxide (DMSO). Plates were incubated for 30 min at about 25° C. with shaking. Reactions were terminated by rapid filtration onto 96-well Unifilter GF/B filter plates (Perkin Elmer, Shelton, Conn.) using a 96-well tissue harvester (Perkin Elmer, Shelton, Conn.) followed by three filtration washes with 200 μl of ice-cold wash buffer (10 mM NaH2PO4, 10 mM Na2HPO4, pH 7.4). Filter plates were subsequently dried at 50° C. for 2-3 hr, BetaScint scintillation cocktail (Perkin Elmer, Shelton, Conn.) was added (50 μl/well) and plates were counted using a Packard Top-Count for […]. Data were analyzed using the sigmoidal dose-response curve fitting functions in GraphPad PRISM™; v. 3.0, or an in-house function for non-linear, sigmoidal dose-response curve-fitting.
μ-Opioid Receptor Functional Data: μ GTP EC50 is the concentration of a compound providing 50% of the maximal response for the compound, at a μ-opioid receptor. […] In certain embodiments.
μ GTP Emax (%) is the maximal effect elicited by a compound relative to the effect elicited by DAMGO, a standard μ agonist. Generally, the μ GTP Emax (%) value measures the efficacy of a compound to treat or prevent pain or other Conditions.

[5] = binding affinity, recombinant κ opioid receptor expressed in HEK 293 cells, read-out: Ki (nM) Opioid Receptor κ
[6] = κ GTP EC50, read-out: GTPγS κ EC50
[7] = μ GTP EC50, read-out: GTPγS μ EC50

Compound | Ki (κ opioid receptor [1]; [5]) | Ki (μ-opioid receptor [2]) | Emax (κ opioid receptor [3]) | EC50 (κ opioid receptor [3]; [6]) | Emax (μ-opioid receptor [4]) | EC50 (μ-opioid receptor [4]; [7]) | Ki (κ opioid receptor [1]) | EC50 (κ opioid receptor [3]) | EC50 (μ-opioid receptor [4])
CN(C)C(=O)CCC[C@]12CCN(CC3CC3)[C@H](Cc3ccc(O)cc31)/C2=C\C(=O)O [Compound 12, (Z)-2-((2R,6S)-3-(cyclopropylmethyl)-6-(4-(dimethylamino)-4-oxobutyl)-8-hydroxy-1,2,3,4,5,6-hexahydro-2,6-methanobenzo[d]azocin-11-ylidene)acetic acid] | 42.5 ± 4.24 nM | 853 ± 199 nM | 74.7 ± 1.2% | 1000 ± 106 nM | 48.7 ± 3.53% | 421 ± 140 nM |  |  | 
O=C(O)CCC[C@]12CCN(CC3CC3)[C@H](Cc3ccc(O)cc31)[C@@H]2CC(=O)O [Compound 10, 4-((2R,6R,11R)-11-(carboxymethyl)-3-(cyclopropylmethyl)-8-hydroxy-1,2,3,4,5,6-hexahydro-2,6-methanobenzo[d]azocin-6-yl)butanoic acid] | 64.5 ± 11.3 nM | 977 ± 335 nM | 31.3 ± 1.86% | 275 ± 43.6 nM | 16 ± 3% | 70.5 ± 26.9 nM |  |  | 
COc1ccc2c(c1)[C@]1(CCO)CCN(CC3CC3)[C@H](C2)[C@@H]1CO [Compound 19, 2-((2R,6S,11R)-3-(cyclopropylmethyl)-11-(hydroxymethyl)-8-methoxy-1,2,3,4,5,6-hexahydro-2,6-methanobenzo[d]azocin-6-yl)ethanol] |  |  | 40.3 ± 5.36% |  |  |  | 89.6 ± 33 nM | 1860 ± 231 nM | > 20000 nM
COc1ccc2c(c1)[C@]1(CC(N)=O)CCN(CC3CC3)[C@H](C2)[C@@H]1CO [Compound 22, 2-((2R,6S,11R)-3-(cyclopropylmethyl)-11-(hydroxymethyl)-8-methoxy-1,2,3,4,5,6-hexahydro-2,6-methanobenzo[d]azocin-6-yl)acetamide] | 79.1 ± 19.1 nM |  | 41.7 ± 4.91% | 2180 ± 326 nM | 56 ± 3.61% | 1280 ± 177 nM |  |  | 
O=C(O)/C=C1\[C@H]2Cc3ccc(O)cc3[C@]1(CCCC(=O)O)CCN2CC1CC1 [Compound 13, 4-((2R,6S,Z)-11-(carboxymethylene)-3-(cyclopropylmethyl)-8-hydroxy-1,2,3,4,5,6-hexahydro-2,6-methanobenzo[d]azocin-6-yl)butanoic acid] | 66.8 ± 8.74 nM | 1340 ± 356 nM | 74.3 ± 7.84% | 555 ± 61.1 nM | 44.3 ± 9.06% | 743 ± 195 nM |  |  | 
